In patent US20250388575A1, “HETEROBIFUNCTIONAL COMPOUNDS AND METHODS OF TREATING DISEASE” (Halda Therapeutics OpCo, Inc., priority 2022, published 2025):
Where two headings read alike, the source gives them in different places.

Columns and labels:
[1] = tested on: T-Rex 293 cell line SC3 cells having increased expression of androgen receptor protein; assay: Cellular growth inhibition, T-Rex 293 SC3 cells with increased androgen receptor expression (doxycycline), CellTiter-Glo; type: cell-based; conditions: T-Rex 293 SC3 cells with increased androgen receptor expression (exposed to 10 ng/mL doxycycline), 72 hours, CellTiter-Glo; read-out: GI50
Outline: (§1)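 SC3, a T-Rex 293 clone with doxycycline-inducible wild-type androgen receptor, was seeded in phenol red-free DMEM with 10% charcoal-dextran FBS, with or without 10 ng/mL doxycycline. Compound added at 24 h (0.5% DMSO) for 72 h at 37° C. CellTiter-Glo 2.0 luminescence; GI50 from four-parameter fit.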

[2] = tested on: T-Rex 293 cell line SC3 cells lacking increased expression of androgen receptor protein; assay: Cellular growth inhibition, T-Rex 293 SC3 cells lacking increased androgen receptor expression (no doxycycline), CellTiter-Glo; type: cell-based; conditions: T-Rex 293 SC3 cells lacking increased androgen receptor expression (not exposed to doxycycline), 72 hours, CellTiter-Glo; read-out: GI50
Outline: as §1

VCaP cells = assay: Cellular growth inhibition assay for VCaP cells, CellTiter-Glo; type: cell-based, human; conditions: VCaP cells, 72 hours, CellTiter-Glo, read-out: GI50
Outline: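 GI50 values come from four-parameter curve fits of luminescence data normalized to a zero baseline. Compound, in medium with 0.5% DMSO, was added one day after plating and left for 72 h before CellTiter-Glo 2.0 addition.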

T47D cells = assay: Cellular growth inhibition assay for T47D cells, CellTiter-Glo; type: cell-based, human; conditions: 72 hours treatment, CellTiter-Glo 2.0
Outline: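 Growth inhibition as GI50, fitted with four parameters to CellTiter-Glo luminescence after 72 h of compound exposure (0.5% DMSO). Cells were T47D, grown in insulin-supplemented (0.2 units/mL) DMEM with 10% FBS and treated one day post-seeding.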

Structure (SMILES) | GI50 (VCaP cells; Homo sapiens) | GI50 (T47D cells; Homo sapiens) | GI50 (VCaP cells) | GI50 (T47D cells) | GI50 [1] | GI50 [2]
CCS(=O)(=O)Cc1ccc(Oc2cccc(OCCOC3CCN(c4ncc(C(=O)N[C@H]5CC[C@H](Oc6ccc(C#N)c(Cl)c6)CC5)cn4)CC3)c2)c(-c2cn(C)c(=O)c3[nH]ccc23)c1 [I-152] | < 500 nM | < 500 nM |  |  | < 500 nM | < 500 nM
CCS(=O)(=O)c1ccc(Oc2ccc(CCC3CCN(c4ccc(C(=O)N[C@H]5CC[C@H](Oc6ccc(C#N)c(Cl)c6)CC5)nn4)CC3)nn2)c(-c2cn(C)c(=O)c3[nH]ccc23)c1 [I-221] |  |  | < 500 nM | < 500 nM | < 500 nM | < 500 nM
CCS(=O)(=O)c1ccc(OC2CC(OC3CC4(CCN(c5ccc(C(=O)N[C@H]6CC[C@H](Oc7ccc(C#N)c(Cl)c7)CC6)nn5)CC4)C3)C2)c(-c2cn(C)c(=O)c3[nH]ccc23)c1 (some centres unmarked) [I-229] |  |  | < 500 nM | < 500 nM | < 500 nM | < 500 nM
Cn1cc(-c2cc(S(C)(=O)=O)ccc2Oc2cccc(CCCC3CCN(c4ncc(C(=O)N[C@H]5CC[C@H](Oc6ccc(C#N)c(Cl)c6)CC5)cn4)CC3)c2)c2cc[nH]c2c1=O [I-233] |  |  | < 500 nM | < 500 nM | < 500 nM | < 500 nM
CCS(=O)(=O)Cc1ccc(OC2CC(OCC3CCN(c4ccc(C(=O)NC5CCC(Oc6ccc(C#N)c(Cl)c6)CC5)nn4)CC3)C2)c(-c2cn(C)c(=O)c3[nH]ccc23)c1 (centres unmarked) [I-240, N-((1r,4r)-4-(3-chloro-4-cyanophenoxy)cyclohexyl)-6-(4-(((1r,3r)-3-(4-((ethylsulfonyl)methyl)-2-(6-methyl-7-oxo-6,7-dihydro-1H-pyrrolo[2,3-c]pyridin-4-yl)phenoxy)cyclobutoxy)methyl)piperidin-1-yl)pyridazine-3-carboxamide] |  |  | < 500 nM | < 500 nM | < 500 nM | < 500 nM
Cn1cc(-c2cc(S(C)(=O)=O)ccc2OC(CCCCN2CCN(c3ccc(C(=O)NC4CCC(Oc5ccc(C#N)c(Cl)c5)CC4)nn3)CC2)C2CC2)c2cc[nH]c2c1=O (centres unmarked) [I-244, N-[4-(3-chloro-4-cyano-phenoxy)cyclohexyl]-6-[4-[5-cyclopropyl-5-[2-(6-methyl-7-oxo-1H-pyrrolo[2,3-c]pyridin-4-yl)-4-methylsulfonyl-phenoxy]pentyl]piperazin-1-yl]pyridazine-3-carboxamide] | < 500 nM | < 500 nM |  |  | < 500 nM | < 500 nM
Cn1cc(-c2cc(C3CCCS3(=O)=O)ccc2OC2CC(OCC3CCN(c4ccc(C(=O)NC5CCC(Oc6ccc(C#N)c(Cl)c6)CC5)nn4)CC3)C2)c2cc[nH]c2c1=O (centres unmarked) [I-245, N-[4-(3-chloro-4-cyano-phenoxy)cyclohexyl]-6-[4-[[3-[4-(1,1-dioxothiolan-2-yl)-2-(6-methyl-7-oxo-1H-pyrrolo[2,3-c]pyridin-4-yl)phenoxy]cyclobutoxy]methyl]-1-piperidyl]pyridazine-3-carboxamide] | < 500 nM | < 500 nM |  |  | < 500 nM | < 500 nM
Cn1cc(-c2cc(N3CCCCS3(=O)=O)ccc2Oc2ccc(CCC3CCN(c4ccc(C(=O)NC5CCC(Oc6ccc(C#N)c(Cl)c6)CC5)nn4)CC3)cc2)c2cc[nH]c2c1=O (centres unmarked) [I-246, N-[4-(3-chloro-4-cyano-phenoxy)cyclohexyl]-6-[4-[2-[4-[4-(1,1-dioxothiazinan-2-yl)-2-(6-methyl-7-oxo-1H-pyrrolo[2,3-c]pyridin-4-yl)phenoxy]phenyl]ethyl]-1-piperidyl]pyridazine-3-carboxamide] |  |  | < 500 nM | < 500 nM | < 500 nM | < 500 nM
CCS(=O)(=O)c1ccc(C(F)(F)c2ccc(CCC3CCN(c4ccc(C(=O)NC5CCC(Oc6ccc(C#N)c(Cl)c6)CC5)nn4)CC3)cc2)c(-c2cn(C)c(=O)c3[nH]ccc23)c1 (centres unmarked) [I-251, N-((1r,4r)-4-(3-chloro-4-cyanophenoxy)cyclohexyl)-6-(4-(4-((4-(ethylsulfonyl)-2-(6-methyl-7-oxo-6,7-dihydro-1H-pyrrolo[2,3-c]pyridin-4-yl)phenyl)difluoromethyl)phenethyl)piperidin-1-yl)pyridazine-3-carboxamide] |  |  | > 3000 nM | < 500 nM | < 500 nM | > 3000 nM

Further lines, with some results ahead:

GI50 (VCaP cells; Homo sapiens) | GI50 (T47D cells; Homo sapiens) | GI50 (VCaP cells) | GI50 (T47D cells) | Structure (SMILES) | GI50 [1] | GI50 [2]
< 500 nM | < 500 nM |  |  | Cn1cc(-c2cc(C(C)(C)O)ccc2Oc2ccc(N3CC(CC4CN(c5ccc(C(=O)N[C@H]6CC[C@H](Oc7ccc(C#N)c(Cl)c7)CC6)nn5)C4)C3)cc2)c2cc[nH]c2c1=O [I-149] | < 500 nM | < 500 nM
< 500 nM | < 500 nM |  |  | Cn1cc(-c2cc(C(C)(C)O)ccc2Oc2ccc(N3CC(OC4CN(c5ccc(C(=O)N[C@H]6CC[C@H](Oc7ccc(C#N)c(Cl)c7)CC6)nn5)C4)C3)cc2)c2cc[nH]c2c1=O [I-150] | < 500 nM | < 500 nM
 |  | < 500 nM | < 500 nM | CCS(=O)(=O)Cc1ccc(Oc2ccc(CCCCC3CCN(c4ccc(C(=O)N[C@H]5CC[C@H](Oc6ccc(C#N)c(Cl)c6)CC5)nn4)CC3)cc2)c(-c2cn(C)c(=O)c3[nH]ccc23)c1 [I-157] | < 500 nM | < 500 nM
< 500 nM | < 500 nM |  |  | Cn1cc(-c2cc(N3CCCS3(=O)=O)ccc2Oc2ccc(CCC3CCN(c4ccc(C(=O)NC5CCC(Oc6ccc(C#N)c(Cl)c6)CC5)nn4)CC3)cc2)c2cc[nH]c2c1=O (centres unmarked) [I-239, N-[4-(3-chloro-4-cyano-phenoxy)cyclohexyl]-6-[4-[2-[4-[4-(1,1-dioxo-1,2-thiazolidin-2-yl)-2-(6-methyl-7-oxo-1H-pyrrolo[2,3-c]pyridin-4-yl)phenoxy]phenyl]ethyl]-1-piperidyl]pyridazine-3-carboxamide] | < 500 nM | < 500 nM
> 3000 nM | 500 to 1500 nM |  |  | Cn1cc(-c2cc(C(C)(C)O)ccc2CN2CC(CC3CCN(c4ccc(C(=O)NC5CCC(Oc6ccc(C#N)c(Cl)c6)CC5)nn4)CC3)C2)c2cc[nH]c2c1=O (centres unmarked) [I-248, N-[4-(3-chloro-4-cyano-phenoxy)cyclohexyl]-6-[4-[[1-[[4-(1-hydroxy-1-methyl-ethyl)-2-(6-methyl-7-oxo-1H-pyrrolo[2,3-c]pyridin-4-yl)phenyl]methyl]azetidin-3-yl]methyl]-1-piperidyl]pyridazine-3-carboxamide] | 500 to 1500 nM | 1500 to 3000 nM
500 to 1500 nM | 500 to 1500 nM |  |  | Cn1cc(-c2cc(C3CCS(=O)(=O)CC3)ccc2Oc2ccc(CCC3CCN(c4ccc(C(=O)NC5CCC(Oc6ccc(C#N)c(Cl)c6)CC5)nn4)CC3)cc2)c2cc[nH]c2c1=O (centres unmarked) [I-250, N-[4-(3-chloro-4-cyano-phenoxy)cyclohexyl]-6-[4-[2-[4-[4-(1,1-dioxothian-4-yl)-2-(6-methyl-7-oxo-1H-pyrrolo[2,3-c]pyridin-4-yl)phenoxy]phenyl]ethyl]-1-piperidyl]pyridazine-3-carboxamide] | < 500 nM | < 500 nM
< 500 nM | 500 to 1500 nM |  |  | Cn1cc(-c2cc(C3CCCS3(=O)=O)ccc2Oc2ccc(CCC3CCN(c4ccc(C(=O)NC5CCC(Oc6ccc(C#N)c(Cl)c6)CC5)nn4)CC3)cc2)c2cc[nH]c2c1=O (centres unmarked) [I-252, N-[4-(3-chloro-4-cyano-phenoxy)cyclohexyl]-6-[4-[2-[4-[4-(1,1-dioxothiolan-2-yl)-2-(6-methyl-7-oxo-1Hpyrrolo[2,3-c]pyridin-4-yl)phenoxy]phenyl]ethyl]-1-piperidyl]pyridazine-3-carboxamide] | < 500 nM | > 3000 nM
< 500 nM | 1500 to 3000 nM |  |  | Cn1cc(-c2cc(C(C)(C)O)ccc2Oc2ccc(C3CN(C4CCN(c5ccc(C(=O)N[C@H]6CC[C@H](Oc7ccc(C#N)c(Cl)c7)CC6)nn5)CC4)C3)cc2)c2cc[nH]c2c1=O [I-254] | < 500 nM | 500 to 1500 nM
